Results from patent publication US20190184064A1, “Composition for Soft Tissue Augmentation Providing Protection from Infection” (priority 2015, published 2019).

Legend:
[1] = tested on: Pseudomonas aeruginosa (PAO1); assay: Solution exposure of antimicrobial hyaluronic acid hydrogels to living cultures (PAO1); type: cell-based; details: 20 μl early phase culture in 980 μl formulation
Method: (§1) By way of Examples, the following evaluations were done to assess the performance of the antimicrobial hyaluronic acid gels. Solution exposure of the antimicrobial hyaluronic acid hydrogels immersed in early phase concentrations of 2 test microorganisms were conducted. Additionally, the physical properties of the hydrogels were assessed to determine their shear/thixotropic properties.
(§2) In this study, two strains of bacteria, namely Pseudomonas aeruginosa (PAO1) and Stapylococcus aureus (SA 113) were evaluated for total kill of each of the strains after 4 and 24 hours of exposure to the taurolidine-HA formulation. 20 μl of early phase culture of each strain was placed in 980 μl of each Hyaluronic Acid formulation. Samples of remaining bacteria concentrations were determined for the samples after 4 and 24 hours of exposure. Two controls (with and without HA), and HA gels with 3 different drug concentrations were evaluated. They were also evaluated against a known antimicrobial, gentamicin.

[2] = tested on: Stapylococcus aureus (SA 113); assay: Solution exposure of antimicrobial hyaluronic acid hydrogels to living cultures (SA 113); type: cell-based; details: 20 μl early phase culture in 980 μl formulation
Method: as §1, §2

## gentamicin
[1]; 4 hours of exposure
  PA01 (4 hr) remaining bacteria concentration: 0.00E+00
[1]; 24 hours of exposure
  PA01 (24 hr) remaining bacteria concentration: 0.00E+00
[2]; 4 hours of exposure
  SA113 (4 hr) remaining bacteria concentration: 3.77E+02
[2]; 24 hours of exposure
  SA113 (24 hr) remaining bacteria concentration: 8.33E+00
